The text below walks through data of paper PMC7435868, “Structure-Based Virtual Screening, Synthesis and Biological Evaluation of Potential FAK-FAT Domain Inhibitors for Treatment of Metastatic Cancer” (Molecules, 2020).

For one series, the system named is MDA-MB-231. Put plainly: Cell viability assay (CellTiter Glo), MDA-MB-231. The series is classed as cell-based. The following applies: Homo sapiens, 72 h incubation, mean of independent triplicate experiments, read-out: In vitro anti-proliferative activity IC50, MDA-MB-231 ER- PR- HER-. Here is the method: (§1) The antiproliferative activity of compound I as well as its newly synthesised analogues (5a–i) was evaluated in vitro against the three human breast cancer cell lines MDA-MB-231 (TNBC), T47D (ER^+, HER^−), and BT474 (ER^+, HER^+) as well as a human pancreatic cancer cell line MIAPaCa2. The seeding of the corresponding cell lines started one day before incubation, which lasted for 72 h with the different concentrations of the tested compounds. CellTiter Glo reagent (25 μL) was added to the cell plate. The luminescence was analysed after 10 min using a PerkinElmer Envision instrument. The test compounds were used at ten different triplicate concentrations in half log increments up to 100 μM.

The next series relates to T47D. Put plainly: Cell viability assay (CellTiter Glo), T47D. The following applies: 72 h incubation, mean of independent triplicate experiments, read-out: In vitro anti-proliferative activity IC50, T47D ER+ PR+/- HER-. The series is classed as cell-based, human. Here is the method: as §1
Background: Cellular ATP, detected with luciferase, serves as a proxy for viable cell number.

For a further series, the system named is BT474. Briefly: Cell viability assay (CellTiter Glo), BT474. The series is classed as cell-based, human. The following applies: 72 h incubation, mean of independent triplicate experiments, read-out: In vitro anti-proliferative activity IC50, BT474 ER+ PR+/- HER+. Here is the method:
as §1

A further series deals with MIAPaCa2. Briefly: Cell viability assay (CellTiter Glo), MIAPaCa2. The following applies: Homo sapiens, MIA PaCa-2, 72 h incubation, mean of independent triplicate experiments, read-out: In vitro anti-proliferative activity IC50, MIAPaCa2. The series is classed as cell-based. As to the method: as §1
The test system of series [1] is MDA-MB-231, T47D, BT474, and MIAPaCa2. Put plainly: Cell viability assay, statements across the four cell lines. Type of series: cell-based, human. The settings on record: for Anti-proliferative activity (in words) across the four cell lines: three human breast and one pancreatic cancer cell line, up to 100 μM. As to the method: as §1
On the set-up of series [2]: method as in PMID 19610651, PMID 24780592. The settings on record: cited from earlier work.
Series [3] is described as follows: Turbidimetric aqueous solubility. The series is classed as physicochemical. The following applies: 37 °C, 2 h. As to the method:
Both the estimated precipitation range (lower and upper bound) and a mid-range value were measured. Nicardipine and pyrene were used as control compounds.
The test compound was diluted in buffer to give a range of concentrations (1, 3, 10, 30, and 100 μM; final DMSO concentration 1%) and incubated at 37 °C for 2 hr.
The test compound (10 mM in DMSO) was serially diluted to give solutions of 0.1, 0.3, 1, and 3 mM in DMSO. Each test compound concentration was then further diluted 1 to 100 in buffer (typically 0.01 M phosphate buffered saline pH 7.4) so that the final DMSO concentration was 1%, and the final test compound concentrations were 1, 3, 10, 30, and 100 μM. The experiment was performed at 37 °C and each concentration was incubated in 7 replicate wells. The plates were incubated for 2 h at 37 °C before the absorbance was measured at 620 nm. Nicardipine and pyrene were included as control compounds. The solubility of nicardipine is pH dependent whereas the solubility of pyrene is pH independent.
An estimated precipitation range (lower and upper bound) and a calculated mid-range value were returned, along with any relevant comments, in the form of an Excel spreadsheet.

Series [4] can be described thus: Microsomal metabolic stability. Here is the method:
Half-life (t1/2) values were measured at five time points.
Intrinsic clearance values (CLint) with standard error and t1⁄2 values were measured.
The final incubation volume was 50 μL. A minus cofactor control incubation was included for each compound tested where 0.1 M phosphate buffer pH 7.4 was added instead of NADPH (minus NADPH). Two control compounds were included with each species. All incubations were performed singularly for each test compound.
The reactions were stopped by transferring 20 μL of incubate to 60 μL methanol at the appropriate time points. The termination plates were centrifuged at 2500 rpm for 20 min at 4 °C to precipitate the protein.
Following protein precipitation, the sample supernatants were combined in cassettes of up to 4 compounds, the internal standard was added, and samples were analysed using Cyprotex generic LC-MS/MS conditions.
From a plot of ln peak area ratio (compound peak area/internal standard peak area) against time, the gradient of the line was determined.

In a further series the target is hERG potassium channel (Homo sapiens, UniProt Q12809). Briefly: hERG channel inhibition (IonWorks automated patch clamp, CHO-hERG cells).
Chain of hERG potassium channel (Q12809 whole entry): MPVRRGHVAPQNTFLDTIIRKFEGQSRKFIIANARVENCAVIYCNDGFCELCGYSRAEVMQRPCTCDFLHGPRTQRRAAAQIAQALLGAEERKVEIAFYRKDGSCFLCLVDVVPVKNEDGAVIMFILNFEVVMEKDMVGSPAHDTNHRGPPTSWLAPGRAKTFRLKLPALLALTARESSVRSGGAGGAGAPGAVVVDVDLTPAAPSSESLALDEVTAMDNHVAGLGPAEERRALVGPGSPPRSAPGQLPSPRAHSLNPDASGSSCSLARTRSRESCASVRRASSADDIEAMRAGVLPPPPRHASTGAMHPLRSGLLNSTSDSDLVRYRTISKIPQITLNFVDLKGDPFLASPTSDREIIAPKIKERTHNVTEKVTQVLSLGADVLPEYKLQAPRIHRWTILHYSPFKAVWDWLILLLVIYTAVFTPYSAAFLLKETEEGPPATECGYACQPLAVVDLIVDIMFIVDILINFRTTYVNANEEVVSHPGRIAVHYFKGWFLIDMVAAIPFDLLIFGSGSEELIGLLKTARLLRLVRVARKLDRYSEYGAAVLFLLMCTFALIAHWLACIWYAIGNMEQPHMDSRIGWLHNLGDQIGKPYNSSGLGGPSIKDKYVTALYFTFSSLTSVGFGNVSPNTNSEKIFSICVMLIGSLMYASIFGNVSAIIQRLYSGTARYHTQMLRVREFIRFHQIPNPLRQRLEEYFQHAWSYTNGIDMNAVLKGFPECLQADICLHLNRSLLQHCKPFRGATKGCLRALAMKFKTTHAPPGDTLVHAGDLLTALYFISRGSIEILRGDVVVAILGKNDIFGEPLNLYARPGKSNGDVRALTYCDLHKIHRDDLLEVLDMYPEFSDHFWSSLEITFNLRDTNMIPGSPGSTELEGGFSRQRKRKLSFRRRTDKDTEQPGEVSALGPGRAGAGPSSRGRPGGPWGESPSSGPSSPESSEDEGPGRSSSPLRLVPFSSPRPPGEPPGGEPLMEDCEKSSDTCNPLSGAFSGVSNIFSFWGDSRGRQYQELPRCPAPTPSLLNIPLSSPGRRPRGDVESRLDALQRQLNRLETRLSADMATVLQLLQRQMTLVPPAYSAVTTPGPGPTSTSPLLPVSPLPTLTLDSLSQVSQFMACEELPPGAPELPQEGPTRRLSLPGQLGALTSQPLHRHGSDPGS
Setting [5] is: buffered aqueous solution (PBS pH 7.4, 1% DMSO).

Where a name gives a salt, the structure may show the parent alone. Read-outs that look alike come from different tables or passages of the source.

Procedure for hERG potassium channel: Mammalian cells expressing the hERG potassium channel were dispensed into 384-well planar arrays and hERG tail-currents measured by whole-cell voltage-clamping. A range of concentrations of the test compound was then added to the cells and a second recording of the hERG current was made. […] IC50 is delivered, standard error (SE IC50), and n (number of data points used to calculate IC50) for the test compound. The experiments were performed on an Ion Works TM automated patch clamp instrument (Molecular Devices LLC (San Jose, California, United States)), which simultaneously performs electrophysiology measurements for 48 single cells in a specialised 384-well plate (PatchPlateTM(manufacturer, city, state if USA or Canada, country)). All cell suspensions, buffers, and test compound solutions were at room temperature during the experiment.
The cells used were Chinese hamster ovary (CHO) cells stably transfected with hERG (cell-line obtained from Cytomyx, UK). A single-cell suspension was prepared in extracellular solution (Dulbecco’s phosphate buffered saline with calcium and magnesium pH 7.2) and aliquots added automatically to each well of a Patch Plate TM. The cells were then positioned over a small hole at the bottom of each well by applying a vacuum beneath the plate to form an electrical seal. The vacuum was applied through a single compartment common to all wells which was filled with intracellular solution (buffered to pH 7.2 with HEPES). The resistance of each seal was measured via a common ground-electrode in the intracellular compartment and individual electrodes placed into each of the upper wells.
Electrical access to the cell was then achieved by circulating a perforating agent, amphotericin B, underneath the PatchPlateTM. The pre-compound hERG current was then measured. An electrode was positioned in the extracellular compartment and a holding potential of −80 mV applied for 15 s. The hERG channels were then activated by applying a depolarising step to +40 mV for 5 s and then clamped at −50 mV for 4 s to elicit the hERG tail current, before returning to −80 mV for 0.3 s.
The Ion Works TM instrument automatically adds test compound dilutions to the upper wells of the PatchPlateTM. The test compound was left in contact with the cells for 300 s before recording currents using the same voltage-step protocol as in the pre-compound scan.
Each concentration was tested in 4 replicate wells on the PatchPlateTM (maximum of 24 data points). Filters were applied to ensure only acceptable cells were used to assess hERG inhibition.
For each replicate, the hERG response was calculated using the following equation:% hERG response = [Post-compound current (nA)/Pre-compound current (nA)] × 100(5)

In the case of `CN(C)CCN(Cc1ccc(Cl)cc1)c1ccccn1` [C4, chloropyramine hydrochloride, reference compound], the IC50 in the series on MDA-MB-231 was 99 µM; with T47D (Homo sapiens, T47D, 72 h) it was more than 100 µM; in the series with BT474 (Homo sapiens, BT-474, 72 h), more than 100 µM; in the series on MIAPaCa2, more than 100 µM. Besides, in series [1], the “Anti-proliferative activity (in words) across the four cell lines” value is “did not show any significant anti-proliferative activity up to a concentration of 100 μM”. Further, the “Concentration at which anticancer activity is displayed” value in series [2] was more than 100 µM.
As to `CC(C)(C)c1ccc(C(CN)c2ccc(C(C)(C)C)cc2)cc1.Cl` [5f, 2,2-Bis(4-tert-butylphenyl)ethan-1-aminium chloride], the IC50 was 5.06 µM in the series with MDA-MB-231; 4.59 µM in the series on T47D; 4.7 µM with T47D (Homo sapiens, T47D, 72 h); 4.7 µM in the series on BT474; 4.59 µM in the series on BT474 (Homo sapiens, BT-474, 72 h); 5.28 µM with MIAPaCa2. For the same compound, the IC50 in [1] (Homo sapiens, MDA-MB-231, T47D, BT474, and MIAPaCa2, read-out: IC50 values range across cell lines) is 4.59 to 5.28 µM; at hERG potassium channel, more than 25 µM. In addition, in [3] (setting [5]), the “Estimated Precipitation Range, Calculated Mid-Range” value is 3.75 µM. The “Estimated Precipitation Range, Lower Bound” value in series [3] (setting [5]) was 1 µM. In [3] (setting [5]), the “Estimated Precipitation Range, Upper Bound” value is on record as 6.5 µM. Also, in series [3] (turbidimetric), the “Aqueous solubility (in words)” value is “relatively reduced solubility comparable to pyrene”. The “Compound Remaining (% of 0 min), 0 min” value in series [4] (human liver microsomes, 0 min) is given as 100 % of 0 min. Besides, the “Compound Remaining (% of 0 min), 5 min” value in series [4] (human liver microsomes, 5 min) was 97.2 % of 0 min. Moreover, the “Compound Remaining (% of 0 min), 15 min” value in series [4] (human liver microsomes, 15 min) is 92.2 % of 0 min. In addition, in series [4] (human liver microsomes, 30 min), the “Compound Remaining (% of 0 min), 30 min” value is 88.0 % of 0 min. For the same compound, in [4] (human liver microsomes, 45 min), the “Compound Remaining (% of 0 min), 45 min” value is 80.7 % of 0 min. Further, the “Compound Remaining (% of 0 min), Control” value in [4] (human liver microsomes, minus NADPH control, 45 min) is on record as 88.0 % of 0 min. Also, in [4] (human, microsomes, pH 7.4), the half-life (usually the time in which the quantity being followed falls by half) at 3 μM is 2.47 h. Also, the microsomal CLint – broadly, the capacity of the preparation to metabolise the compound, expressed as a volume cleared per time – at 3 μM in series [4] (human, pooled liver microsomes, pH 7.4) was 9.34 µL/min/mg. Also, in series [1], the “Anti-proliferative activity (in words) across the four cell lines” value is given as “low micromolar antiproliferative activity”.
